Results on three molecules are retold here after US11628159B2, “Cell-protective compounds and their use” (ETH ZURICH, priority 2017, dated 2023).

For assay [1], the system named is GRK2-mediated phosphorylation of SRSF1/Srsf1. In words: Immunoblot of SRSF1/Srsf1 phosphorylation in isolated neonatal cardiomyocytes from Tg-SRSF1 mice. It is filed as cell-based, mouse. The following applies: 10 microM, 60 h, relative to vehicle. On the procedure:
A, The GRK2-mediated phosphorylation of SRSF1/Srsf1 was determined by immunoblot in lysates from isolated neonatal cardiomyocytes from Tg-SRSF1 mice after incubation for 60 h with 10 microM of paroxetine, 1-(1,3-benzodioxol-5-yl)-4-(cyclopropane-carbonyl)-3-hydroxy-2-phenyl-2H-pyrrol-5-one (“Compound-1”) or 4-(1,3-benzodioxol-5-yl)pyrimidine (“Compound-4”) relative to vehicle-treated control (“C”) cardiomyocytes. B, Immunoblot detection of GRK2-mediated phosphorylation of SRSF1 (pSRSF1) was performed with lysates from HEK (human embryonic kidney) cells incubated for 60 h with 10 microM of 4-(1,3-benzodioxol-5-yl)pyrimidine (“Compound-4”), 1-(1,3-benzodioxol-5-ylmethyl)-5-(4-chlorophenyl)-2-methyl-pyrrole-3-carboxamide (“Compound-24”) or (4R)-N3-(1,3-benzodioxol-5-ylmethyl)-N4-[[3-(trifluoromethyl)phenyl]-methyl]pyrrolidine-3,4-dicarboxamide (“Compound-5”) relative to vehicle-treated controls (“C”).
Briefly, the hearts were dissected out from 2-3 day-old mice, atria and aorta were removed, and the hearts were transferred into sterile buffer A (137 mM NaCl, 5.36 mM KCl, 0.81 mM MgSO4, 5.55 mM dextrose, 0.44 mM KH2PO4, 0.34 mM Na2HPO4, 20 mM HEPES, 100 U/ml penicillin, 100 microg/ml streptomycin, pH 7.4). […]
Background: In western blotting, separated proteins are transferred to a membrane and probed.

Assay [2] deals with GRK2-mediated phosphorylation of Srsf1. In words: Cardiac Srsf1 phosphorylation under basal conditions in non-transgenic B6 mice after short-term treatment. It is filed as in vivo, mouse. The following applies: 10 mg/kg i.p., 5 h, immunoblot, relative to vehicle. As for the experimental part:
A, The GRK2-mediated phosphorylation of Srsf1 was determined by immunoblot in cardiac lysates prepared from hearts of non-transgenic B6 mice after treatment (i.p.) for 5 h with 10 mg/kg of 1-(1,3-benzodioxol-5-yl)-4-(cyclopropane-carbonyl)-3-hydroxy-2-phenyl-2H-pyrrol-5-one (“Compound-1”), 4-(1,3-benzodioxol-5-yl)pyrimidine (“Compound-4”), 1-(1,3-benzodioxol-5-ylmethyl)-5-(4-fluorophenyl)-2-methyl-pyrrole-3-carboxamide (“Compound-2”), or (4R)-N3-(1,3-benzodioxol-5-ylmethyl)-N4-[[3-(trifluoromethyl)phenyl]-methyl]pyrrolidine-3,4-dicarboxamide (“Compound-5”) relative to vehicle-treated B6 controls (“con”). […] B, Left panel: The AAC-induced cardiac p-Srsf1 content was determined in cardiac lysates from B6 mice with AAC after treatment for 7 days with 5 mg/kg/d of 1-(1,3-benzodioxol-5-yl)-4-(cyclopropane-carbonyl)-3-hydroxy-2-phenyl-2H-pyrrol-5-one (“Compound-1”) or (4R)-N3-(1,3-benzodioxol-5-ylmethyl)-N4-[[3-(trifluoromethyl)phenyl]-methyl]pyrrolidine-3,4-dicarboxamide (“Compound-5”) relative to vehicle-treated B6 controls with AAC (“AAC-con”). […] Right and lower panels: Cardiac function parameters were determined by echocardiography in B6 mice with AAC after treatment for 7 days with “Compound-1” or “Compound-5” relative to vehicle-treated B6 controls with AAC ((±s.d.; n=5 (A) and n=3 (B); Dunnett's Multiple Comparison Test vs. con (A) or AAC-con (B)).

Another assay deals with T1, GRK2 (Mus musculus, UniProt Q99MK8).
T1 construct: from tissue; host or cells: heart lysate of Tg-RKIP mice
T1 sequence (Q99MK8 1-689): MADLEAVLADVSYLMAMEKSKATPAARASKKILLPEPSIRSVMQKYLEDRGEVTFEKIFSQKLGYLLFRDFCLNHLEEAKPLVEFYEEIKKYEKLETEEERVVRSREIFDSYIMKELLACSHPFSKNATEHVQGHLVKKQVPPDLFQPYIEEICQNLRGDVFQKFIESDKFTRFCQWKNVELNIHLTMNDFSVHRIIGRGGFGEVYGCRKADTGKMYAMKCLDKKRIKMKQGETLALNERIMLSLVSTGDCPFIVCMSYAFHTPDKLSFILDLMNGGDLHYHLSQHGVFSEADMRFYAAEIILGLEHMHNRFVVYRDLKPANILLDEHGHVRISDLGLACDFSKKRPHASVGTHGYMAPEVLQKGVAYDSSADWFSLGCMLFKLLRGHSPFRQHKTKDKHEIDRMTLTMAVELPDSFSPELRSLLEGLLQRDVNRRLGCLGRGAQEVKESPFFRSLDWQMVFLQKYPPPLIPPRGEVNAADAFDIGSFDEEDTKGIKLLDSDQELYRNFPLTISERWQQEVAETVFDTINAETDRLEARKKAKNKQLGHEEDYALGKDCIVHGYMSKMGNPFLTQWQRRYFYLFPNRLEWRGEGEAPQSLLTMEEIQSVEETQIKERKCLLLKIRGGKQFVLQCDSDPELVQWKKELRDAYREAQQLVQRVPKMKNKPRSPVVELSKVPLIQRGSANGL
In words: Depletion of GRK2 from Tg-RKIP heart lysates by affinity purification of RKIP. It is filed as binding. Particulars: serine-153 phosphorylated transgenic RKIP, n=4. The source says: A, Immunoblot detection of serine-153 phosphorylation of RKIP (pS153) in Tg-RKIP and B6 control hearts (n=5 mice/group). B, Removal of RKIP by affinity purification (AP) with immobilized RKIP-specific antibodies depletes the GRK2 protein from Tg-RKIP heart lysates. A control affinity purification with unrelated antibodies did neither deplete RKIP nor GRK2. Upper panels show representative experiments and lower panels show quantitative data evaluation (±s.d., n=4; *, p=0.0286; Mann Whitney Test). C, Isoproterenol-stimulated cAMP response in neonatal cardiomyocytes from Tg-RKIP and Tg-GRK2-K220R mice (n=6; ±s.d.).
The GRK2-inhibitory activity of transgenic RKIP (human RKIP˜PEBP1) was controlled in vivo. The phosphorylation of RKIP on serine-153 switches RKIP from Raf1 inhibition to GRK2 inhibition (Lorenz K, et al., Nature 426, 574-579 (2003)). Substantial serine-153 phosphorylation of RKIP was documented by immunoblot detection in Tg-RKIP hearts (FIG. 7A). […] We determined the GRK2 inhibition-mediated resensitization of the isoproterenol-stimulated cAMP response in neonatal cardiomyocytes as readout for GRK2 inhibition by RKIP and GRK2-K220R, respectively (Abd Alla, J, et al., J. Biol. Chem. 291, 2583-2600 (2016); Kong K C, et al., Biochemistry 47, 9279-9288 (2008)).

For the molecule `c1cc(-c2ccc3c(c2)OCO3)ncn1` [Compound-4, 4-(1,3-benzodioxol-5-yl)pyrimidine], in assay [1], the “SRSF1/Srsf1 phosphorylation in isolated Tg-SRSF1 cardiomyocytes” value is listed as “decreased”. The “GRK2-mediated Srsf1 phosphorylation under basal conditions in the hearts of non-transgenic B6 mice” value in assay [2] was “decreased”.

Consider `O=C(C1=C(O)C(c2ccccc2)N(c2ccc3c(c2)OCO3)C1=O)C1CC1` (centres unmarked) [Compound-1, 1-(1,3-benzodioxol-5-yl)-4-(cyclopropane-carbonyl)-3-hydroxy-2-phenyl-2H-pyrrol-5-one], for which, in assay [1], the “SRSF1/Srsf1 phosphorylation in isolated Tg-SRSF1 cardiomyocytes” value is “decreased”. For the same molecule, in assay [2], the “GRK2-mediated Srsf1 phosphorylation under basal conditions in the hearts of non-transgenic B6 mice” value is on record as “decreased”.

B1: RKIP: raf kinase inhibitor protein, a dual-specific GRK2 and Raf kinase inhibitor (protein, UniProt P30086 2-187, looked up)
Phosphatidylethanolamine-bindi …: PVDLSKWSGPLSLQEVDEQPQHPLHVTYAGAAVDELGKVLTPTQVKNRPTSISWDGLDSGKLYTLVLTDPDAPSRKDPKYREWHHFLVVNMKGNDISSGTVLSDYVGSGPPKGTGLHRYVWLVYEQDRPLKCDEPILSNRSGDHRGKFKVASFRKKYELRAPVAGTCYQAEWDDYVPKLYEQLSGK
On to B1, for which, in the assay with GRK2, the “GRK2 protein bound and neutralized in Tg-RKIP hearts” value turned out to be 90.4%.
